For this assay, the target named is Integrin alpha-IIb/beta-3 (Homo sapiens, UniProt P08514+P05106). The assay is described as follows: Inhibition of integrin alphaIIb-beta3 in platelet aggregation assay.
Chain of Integrin alpha-IIb/beta-3 (P05106 27-788 limits assumed): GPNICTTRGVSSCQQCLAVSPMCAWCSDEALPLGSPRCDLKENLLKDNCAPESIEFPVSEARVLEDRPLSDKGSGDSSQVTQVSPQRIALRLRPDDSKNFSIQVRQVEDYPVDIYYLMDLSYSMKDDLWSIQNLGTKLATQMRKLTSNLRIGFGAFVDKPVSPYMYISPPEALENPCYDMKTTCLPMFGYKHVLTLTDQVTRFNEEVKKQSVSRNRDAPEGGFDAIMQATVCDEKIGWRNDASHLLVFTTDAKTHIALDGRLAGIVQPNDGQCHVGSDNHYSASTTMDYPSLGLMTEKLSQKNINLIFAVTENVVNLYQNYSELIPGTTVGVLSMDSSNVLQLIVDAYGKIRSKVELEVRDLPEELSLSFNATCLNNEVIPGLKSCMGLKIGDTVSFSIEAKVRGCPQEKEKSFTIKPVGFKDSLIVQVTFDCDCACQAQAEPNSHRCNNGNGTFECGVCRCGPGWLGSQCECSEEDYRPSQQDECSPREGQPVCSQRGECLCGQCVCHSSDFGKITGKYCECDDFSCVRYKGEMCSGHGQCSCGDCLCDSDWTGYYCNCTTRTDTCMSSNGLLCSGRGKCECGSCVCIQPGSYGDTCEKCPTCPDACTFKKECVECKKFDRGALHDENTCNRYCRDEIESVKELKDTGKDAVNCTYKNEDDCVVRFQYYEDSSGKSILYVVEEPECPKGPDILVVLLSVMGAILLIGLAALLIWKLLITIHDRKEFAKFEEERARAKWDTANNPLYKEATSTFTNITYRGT
Chain of Integrin alpha-IIb/beta-3 (P08514 32-887 limits assumed): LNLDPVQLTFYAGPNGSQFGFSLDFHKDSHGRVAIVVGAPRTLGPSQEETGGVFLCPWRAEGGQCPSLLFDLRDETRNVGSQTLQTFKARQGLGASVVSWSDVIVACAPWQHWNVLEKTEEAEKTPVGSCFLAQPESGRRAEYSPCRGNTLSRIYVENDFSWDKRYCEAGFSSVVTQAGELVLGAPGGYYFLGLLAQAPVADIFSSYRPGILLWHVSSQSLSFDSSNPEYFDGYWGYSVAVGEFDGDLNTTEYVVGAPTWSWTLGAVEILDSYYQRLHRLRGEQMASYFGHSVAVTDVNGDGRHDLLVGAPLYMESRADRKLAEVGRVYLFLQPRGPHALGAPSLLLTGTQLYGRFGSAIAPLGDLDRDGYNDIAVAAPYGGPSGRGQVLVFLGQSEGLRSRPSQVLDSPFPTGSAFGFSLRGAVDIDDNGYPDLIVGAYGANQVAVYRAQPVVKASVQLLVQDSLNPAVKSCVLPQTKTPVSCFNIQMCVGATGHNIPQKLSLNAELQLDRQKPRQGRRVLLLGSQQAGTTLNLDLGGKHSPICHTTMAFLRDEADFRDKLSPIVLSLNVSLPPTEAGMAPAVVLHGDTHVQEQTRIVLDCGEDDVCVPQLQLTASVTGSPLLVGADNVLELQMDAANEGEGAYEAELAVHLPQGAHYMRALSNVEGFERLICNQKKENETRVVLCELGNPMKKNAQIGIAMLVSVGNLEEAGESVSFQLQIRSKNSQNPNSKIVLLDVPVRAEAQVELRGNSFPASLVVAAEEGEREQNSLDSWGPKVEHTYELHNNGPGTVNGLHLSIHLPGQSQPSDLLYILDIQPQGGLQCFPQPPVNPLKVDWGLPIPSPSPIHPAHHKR
Chain of Integrin alpha-IIb/beta-3 (P08514 891-1039 limits assumed): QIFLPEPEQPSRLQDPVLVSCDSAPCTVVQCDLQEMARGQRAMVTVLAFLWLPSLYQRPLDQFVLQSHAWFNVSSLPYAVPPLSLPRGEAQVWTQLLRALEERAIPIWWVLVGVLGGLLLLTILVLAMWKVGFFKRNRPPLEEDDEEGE
For `O=C(O)C[C@H](NC(=O)CN1CCC(CCc2ccc3c(n2)NCCC3)C1=O)c1cnc2ccccc2c1` (some centres not stated) [3-(2-{2-Oxo-3-[2-(5,6,7,8-tetrahydro-[1,8]naphthyridin-2-yl)-ethyl]-pyrrolidin-1-yl}-acetylamino)-3-quinolin-3-yl-propionic acid], the concentration for half-maximal inhibition (IC50) (usually the concentration needed to halve the response being measured) turned out to be 0.776 µM.
`CNc1cccc(CCOc2ccc3c(c2)CN(CC(F)(F)F)C(=O)[C@H](CC(=O)O)C3)n1` [[(S)-8-[2-(6-Methylamino-pyridin-2-yl)-ethoxy]-3-oxo-2-(2,2,2-trifluoro-ethyl)-2,3,4,5-tetrahydro-1H-benzo[c]azepin-4-yl]-acetic acid] gave a concentration for half-maximal inhibition (IC50) greater than 10 µM.
Compound `O=C(O)CCNC(=O)CNC(=O)CCCc1ccc2c(n1)NCCC2` [3-[2-(4-5,6,7,8-Tetrahydro-[1,8]naphthyridin-2-yl-butyrylamino)-acetylamino]-propionic acid] had an IC50 greater than 10 µM.
For `O=C(NC[C@H](NS(=O)(=O)c1ccccc1)C(=O)O)c1ccc(CCc2ccc3c(n2)NCCC3)cc1` [2-Benzenesulfonylamino-3-{4-[2-(5,6,7,8-tetrahydro-[1,8]naphthyridin-2-yl)-ethyl]-benzoylamino}-propionic acid], the concentration for half-maximal inhibition (IC50) is 0.26 µM. In other words, the sub-micromolar range.
As for `Nc1cccc(CCc2ccc(C(=O)NC[C@H](NS(=O)(=O)c3ccc(I)cc3)C(=O)O)cc2)n1` [3-{4-[2-(6-Amino-pyridin-2-yl)-ethyl]-benzoylamino}-2-(4-iodo-benzenesulfonylamino)-propionic acid], the IC50 was found to be 1.6 µM.
For the compound `O=C(O)C[C@H](NC(=O)CNC(=O)CCCc1ccc2c(n1)NCCC2)c1cccnc1` [(S)-3-Pyridin-3-yl-3-[2-(4-5,6,7,8-tetrahydro-[1,8]naphthyridin-2-yl-butyrylamino)-acetylamino]-propionic acid], the 50% inhibitory concentration (IC50) was greater than 10 µM.
In turn, `O=C(O)C[C@H](NC(=O)CN1CCC(CCc2ccc3c(n2)NCCC3)C1=O)c1cccnc1` (some centres not stated) [3-(2-{2-Oxo-3-[2-(5,6,7,8-tetrahydro-[1,8]naphthyridin-2-yl)-ethyl]-pyrrolidin-1-yl}-acetylamino)-3-pyridin-3-yl-propionic acid] gave an IC50 greater than 10 µM.

The record behind these values is BindingDB's records for doi:10.1021/jm0203130 (Merck Research Laboratories, 2002).
